Experimental data as given in article PMC11237073, “Bisphenol S causes excessive estrogen synthesis by activating FSHR and the downstream cAMP/PKA signaling pathway” (Communications Biology, 2024).

Biological target: T1, follicle stimulating hormone receptor (FSHR) (Homo sapiens, UniProt P23945)
T1 sequence (P23945 18-695): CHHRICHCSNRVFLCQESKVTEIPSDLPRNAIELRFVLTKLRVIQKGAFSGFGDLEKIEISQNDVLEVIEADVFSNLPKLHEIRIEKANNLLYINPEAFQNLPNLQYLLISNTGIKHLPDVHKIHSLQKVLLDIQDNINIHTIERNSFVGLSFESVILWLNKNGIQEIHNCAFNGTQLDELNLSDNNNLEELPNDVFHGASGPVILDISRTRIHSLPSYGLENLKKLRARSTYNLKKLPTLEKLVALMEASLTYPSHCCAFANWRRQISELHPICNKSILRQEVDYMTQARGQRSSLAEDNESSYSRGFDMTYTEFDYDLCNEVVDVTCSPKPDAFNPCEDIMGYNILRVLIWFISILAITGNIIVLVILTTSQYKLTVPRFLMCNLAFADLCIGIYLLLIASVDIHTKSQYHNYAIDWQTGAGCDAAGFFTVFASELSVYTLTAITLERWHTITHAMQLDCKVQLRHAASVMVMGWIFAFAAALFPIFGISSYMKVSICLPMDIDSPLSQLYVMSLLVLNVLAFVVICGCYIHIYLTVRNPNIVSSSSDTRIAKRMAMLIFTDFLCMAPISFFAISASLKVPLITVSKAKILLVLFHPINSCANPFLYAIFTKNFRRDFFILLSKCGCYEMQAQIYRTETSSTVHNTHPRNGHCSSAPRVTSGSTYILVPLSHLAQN
Assay: isothermal titration calorimetry (Nano ITC, […] BPS into […] FSHR, sequential two-site model)
Settings: read-out: Value for specific binding site

SMILES: O=S(=O)(c1ccc(O)cc1)c1ccc(O)cc1 [BPS, bisphenol S]
- Kd: 183 µM
